Measurements taken from patent publication US20220332774A1, “THERAPEUTIC MITOCHONDRIAL PEPTIDES” (priority 2019, published 2022).

What was measured:
[1] = tested on: C2C12 Cells; assay: Glucose utilization in cultured C2C12 cells (myotubes); type: cell-based, mouse; settings: glucose concentration in medium relative to untreated cells; 5 μM peptide, 22 h
Procedure, shortened: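 Differentiated mouse myotubes (5 days in 2% horse serum) serum-starved 5 h, then treated 22 h at 37 °C with peptide at 5 μM final (0.1% DMSO) in low-glucose (1 g/L) DMEM. Glucose remaining in medium measured colorimetrically at 570 nm. Expressed as percent of untreated control, from 2–3 experiments in triplicate.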

[2] = tested on: H4-IIE Cells; assay: Glucose production in cultured H4-IIE cells; type: cell-based, rat; settings: glucose concentration in medium relative to untreated cells; 5 μM peptide, 24 h
Procedure, shortened: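 Rat H4-IIE hepatoma cells primed overnight in glucose-free DMEM with 2 mM pyruvate and 10 mM lactate, then treated 24 h at 37 °C with 5 μM peptide (0.1% DMSO; concentration assumes ~2000 Da). Medium glucose measured colorimetrically at 570 nm. Values are percent of untreated-cell glucose production; 0.5-1 nM insulin served as inhibitor reference.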

[3] = tested on: 3T3-L1 Mouse Adipocytes; assay: Free fatty acid levels in cultured 3T3-L1 mouse adipocytes (isoproterenol stimulated); type: cell-based; settings: free fatty acid in medium; 5 μM peptide, 20-22 h pre-incubation then 3 h with 0.1 nM isoproterenol; isoproterenol alone = 100%
Procedure, shortened: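 3T3-L1 cells differentiated 12 days, insulin withdrawn, then peptides added on day 13 at 5 μM (0.1% DMSO) for 20-22 h at 37° C. After 3 h in assay buffer, medium free fatty acids read at 540 nm. Values expressed as percent of 0.1 nM isoproterenol-alone control.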

Substance: 203 (KNIEAPLAW) [compound 203]
- Percent of Control Activity [1]: 98%
- Percent of Control Activity [2]: 102%
- Percent of Isoproterenol Control Activity [3]: 107%

Substance: 204 (RMGASIGSTTRLSTS) [compound 204]
- Percent of Control Activity [1]: 95%
- Percent of Control Activity [2]: 107%
- Percent of Isoproterenol Control Activity [3]: 111%

Substance: 205 (VQTVSISWASEMLVLVSFVVSV) [compound 205]
- Percent of Control Activity [1]: 99%
- Percent of Control Activity [2]: 102%
- Percent of Isoproterenol Control Activity [3]: 105%

Substance: 206 (SSSMMGEVASC) [compound 206]
- Percent of Control Activity [1]: 99%
- Percent of Control Activity [2]: 106%
- Percent of Isoproterenol Control Activity [3]: 95%

Substance: 207 (VVGSWCWSLSWVVGMR) [compound 207]
- Percent of Control Activity [1]: 90%
- Percent of Control Activity [2]: 103%
- Percent of Isoproterenol Control Activity [3]: 98%

Substance: 208 (CHWAGGASNTGDA) [compound 208]
- Percent of Control Activity [1]: 89%
- Percent of Control Activity [2]: 107%
- Percent of Isoproterenol Control Activity [3]: 103%

Substance: 209 (FAVSMMWSLE) [compound 209]
- Percent of Control Activity [1]: 102%
- Percent of Control Activity [2]: 104%
- Percent of Isoproterenol Control Activity [3]: 97%

Substance: 210 (MKVDATMDFT) [compound 210]
- Percent of Control Activity [1]: 92%
- Percent of Control Activity [2]: 100%
- Percent of Isoproterenol Control Activity [3]: 95%
